# Results from PubChem BioAssay AID652125 (The Scripps Research Institute Molecular Screening Center, 2013).
# The source made the active and inactive calls. No rule for the calls is given here.
# Target: Perilipin-1 (Homo sapiens) + 1-acylglycerol-3-phosphate O-acyltransferase ABHD5 (Homo sapiens) (UniProt O60240+Q8WTS1)
# Assay: PubChem AID 652125
# Conditions: biochemical ABHD5-PLIN1 interaction, luminescence
row,IC50,Compound
1,> 39.8 µM (inactive),O=C(CCn1cnc2ccccc21)N1CCN(S(=O)(=O)c2ccc3c(c2)OCCO3)CC1
2,3.53 µM,CCS(=O)(=O)c1ncc(Cl)c(C(=O)Nc2ccc(C)cc2)n1
3,> 39.8 µM (inactive),CCCCCNC(=O)Nc1ccc2c(c1)Sc1ccccc1C(=O)N2C
4,> 39.8 µM (inactive),CC(NC(=O)CN1CCN(S(=O)(=O)c2ccc3c(c2)OCCCO3)CC1)c1cc2ccccc2o1 (configuration not stated)
5,> 39.8 µM (inactive),O=C(CCc1c[nH]c2ccccc12)N1CCN(S(=O)(=O)c2ccc3c(c2)OCCO3)CC1
6,> 39.8 µM (inactive),CCCCCCNC(=O)Nc1ccc2c(c1)Sc1ccccc1C(=O)N2C
7,3.5 µM,Cc1ccc(NC(=O)c2nc(S(C)(=O)=O)ncc2Cl)cc1
8,inactive,CN(C)CCCN(C(=O)c1cc2ccccc2oc1=O)c1nc2ccc(Cl)cc2s1
9,6.72 µM,CCS(=O)(=O)c1ncc(Cl)c(C(=O)Nc2ccc(S(N)(=O)=O)cc2)n1
10,> 39.8 µM (inactive),Cc1ccc(CS(=O)(=O)c2ncc(Cl)c(C(=O)Nc3nnc(C(C)C)s3)n2)cc1
11,> 39.8 µM (inactive),COc1ccc(OCC(=O)Nc2ccc3c(c2)N(C(C)C)C(=O)c2ccccc2O3)cc1
12,> 39.8 µM (inactive),COc1ccc(CC(=O)N2CCCN(S(=O)(=O)c3ccc(C)cc3)CC2)cc1OC
13,> 39.8 µM (inactive),CN1C(=O)c2ccccc2Oc2ccc(NC(=O)c3cccs3)cc21
14,inactive,O=C(Cc1ccc2c(c1)CCCC2)N1CCN(S(=O)(=O)c2ccc3c(c2)OCCO3)CC1
15,inactive,CN(C)CCCN(C(=O)CCc1ccccc1)c1nc2ccc(Cl)cc2s1
16,1.41 µM,O=C(c1nc(S(=O)(=O)Cc2ccccc2)ncc1Cl)N(Cc1ccccc1)Cc1ccco1
17,> 39.8 µM (inactive),CN(C)CCCN(C(=O)C1CCCCC1)c1nc2cc(Cl)ccc2s1
18,3.57 µM,CN1C(=O)c2ccccc2Sc2ccc(NC(=O)NCCc3ccccc3)cc21
19,2.2 µM,O=C(Nc1ccc2ccccc2c1)c1nc(S(=O)(=O)Cc2ccccc2)ncc1Cl
20,> 39.8 µM (inactive),O=C(C1COc2ccccc2O1)N1CCN(S(=O)(=O)c2ccc3c(c2)OCCO3)CC1 (configuration not stated)
21,5.42 µM,CCCS(=O)(=O)c1ncc(Cl)c(C(=O)Nc2ccc(C(=O)OC)cc2)n1
22,inactive,CN(C)CCCN(C(=O)Cc1ccc(F)cc1)c1nc2ccc(Cl)cc2s1
23,> 39.8 µM (inactive),CN1C(=O)c2ccccc2Oc2ccc(NC(=O)c3cc4ccccc4[nH]3)cc21
24,inactive,O=C(CCc1nc2ccccc2s1)N1CCN(S(=O)(=O)c2ccc3c(c2)OCCO3)CC1

row,IC50,Compound
1,> 39.8 µM (inactive),CCCC(=O)Nc1ccc2c(c1)C(=O)N(C)c1cc(C)ccc1O2
2,4.31 µM,CN1C(=O)c2ccccc2Sc2ccc(NC(=O)NCCc3cccs3)cc21
3,2.11 µM,Cc1ccc(CS(=O)(=O)c2ncc(Cl)c(C(=O)Nc3cccc(C(F)(F)F)c3)n2)cc1
4,3.74 µM,Cc1ccc2c(CC(=O)N3CCN(S(=O)(=O)c4ccc5c(c4)OCCCO5)CC3)coc2c1C
5,2.54 µM,CCc1ccc2c(CC(=O)N3CCN(S(=O)(=O)c4ccc5c(c4)OCCO5)CC3)coc2c1
6,> 39.8 µM (inactive),CCCC(=O)Nc1ccc2c(c1)C(=O)N(C)c1ccccc1O2
7,> 39.8 µM (inactive),O=C(Cc1cccc(F)c1)N1CCN(S(=O)(=O)c2ccc3c(c2)OCCO3)CC1
8,5.75 µM,Cc1ccc(CS(=O)(=O)c2ncc(Cl)c(C(=O)N3CCN(C)CC3)n2)cc1
9,1.73 µM,CN1C(=O)c2ccccc2Sc2ccc(NC(=O)NCCCc3ccccc3)cc21
10,inactive,CN(C)CCCN(C(=O)C1CCCCC1)c1nc2cc(Br)ccc2s1
11,5.32 µM,CCCS(=O)(=O)c1ccc(Cl)c(C(=O)Nc2ccc(C(=O)OCC)cc2)c1
12,2.29 µM,Cc1ccc(CS(=O)(=O)c2ncc(Cl)c(C(=O)Nc3cccc4ccccc34)n2)cc1
13,3.2 µM,Cc1ccc(CS(=O)(=O)c2ncc(Cl)c(C(=O)NCc3ccc4c(c3)OCO4)n2)cc1
14,> 39.8 µM (inactive),CCCC(=O)N(CCCN1CCOCC1)c1nc2ccc(Cl)cc2s1
15,inactive,CCCNC(=O)Nc1ccc2c(c1)N(CC)C(=O)c1ccccc1S2
16,3.43 µM,CN(C(=O)c1nc(S(C)(=O)=O)ncc1Cl)c1ccccc1
17,4.22 µM,NS(=O)(=O)c1ccc(NC(=O)c2nc(S(=O)(=O)Cc3ccccc3)ncc2Cl)cc1
18,inactive,Cc1ccc2cc(CC(=O)N3CCN(S(=O)(=O)c4ccc5c(c4)OCCO5)CC3)oc2c1
19,> 39.8 µM (inactive),COc1ccc(CC(=O)N2CCN(S(=O)(=O)c3ccc4c(c3)OCCCO4)CC2)cc1
20,inactive,CCCCCCCNC(=O)Nc1ccc2c(c1)Sc1ccccc1C(=O)N2C
21,> 39.8 µM (inactive),CC(C)N1C(=O)c2ccccc2Oc2ccc(NC(=O)c3ccccc3)cc21
22,2.5 µM,COc1ccc(CCNC(=O)c2nc(S(=O)(=O)Cc3ccc(F)cc3)ncc2Cl)cc1OC
23,1.42 µM,CS(=O)(=O)c1ncc(Cl)c(C(=O)Nc2ccc(C(F)(F)F)cc2)n1
